Reference: article PMC5341858, “Molecular regulation of apoptotic machinery and lipid metabolism by mTORC1/mTORC2 dual inhibitors in preclinical models of HER2+/PIK3CAmut breast cancer” (Oncotarget, 2016)

Tests used:
Assay type in all cases: cell-based
MDA-MB-453 cells [1] = assay: Total cellular acetyl-CoA level; conditions: 24 h
Procedure: (§1) Cellular glucose-to-lipid conversion was measured as described. Briefly, cells were pretreated with inhibitors for 2 h, incubated for 2 h in medium containing 2 μCi/mL D-[1-14C] glucose (PerkinElmer, NEC043X001MC). Total lipids were extracted twice with 300 μL hexane:isopropanol (3:2; vol:vol). Cell debris was carefully removed by centrifugation at 14,000 rpm for 5 min using a microcentrifuge. Radioactive lipids were dried, redissolved with 100 μL of chloroform and determined by liquid scintillation counting. A duplicate assay plate without radioactive glucose label was used to count the number of cells per treatment. Glucose to total lipid conversion rate is the radioactive counts from the extracted lipid normalized by the number of cells per hour of ^14C-glucose incubation. For acetyl-CoA assay, cells grown in 96-well plates were washed and lysed in 40 μL/well using lysis buffer. Cell lysates were transferred to V-bottom plates, cleared by centrifugation. 30 μL of the cleared cell lysates were subjected to acetyl-CoA measurement using an acetyl-CoA assay kit (Sigma, MAK-039) following manufacturer's assay manual. Duplicate assay plates were used to count the number of cells per treatment for normalization in determining cellular acetyl-CoA levels.

MDA-MB-453 cells [2] = assay: Glucose-to-lipid conversion (de novo lipid synthesis); conditions: 4 h, saturating dose (5 μM MTI-31, 1 μM rapamycin)
Procedure: as §1

MDA-MB-231 cells = assay: as above; conditions: similar treatment, 4 h saturating dose
Procedure: as §1

| SMILES | reduction in acetyl-CoA (MDA-MB-453 cells [1]) [%] | suppression of de novo lipid synthesis (14C-glucose-to-lipid conversion rate) (MDA-MB-453 cells [2]) [%] | effect on de novo lipid synthesis (MDA-MB-231 cells) |
| --- | --- | --- | --- |
| CO[C@H]1C[C@@H]2CC[C@@H](C)[C@@](O)(O2)C(=O)C(=O)N2CCCC[C@H]2C(=O)O[C@H]([C@H](C)C[C@@H]2CC[C@@H](O)[C@H](OC)C2)CC(=O)[C@H](C)/C=C(\C)[C@@H](O)[C@@H](OC)C(=O)[C@H](C)C[C@H](C)/C=C/C=C/C=C/1C [rapamycin] | 45 | 32 | did not significantly reduce lipid synthesis |
| COc1ccc(-c2ccc3c(N4CCOC[C@@H]4C)nc(N4CCOC[C@@H]4C)nc3n2)cc1CO [AZD8055] | – | 63 | did not significantly reduce lipid synthesis |
